Results on three compounds are retold here after ChEMBL document CHEMBL5465560, “Selectivity Literature for EUbOPEN Chemogenomic Library” (2024).

Substitutions are numbered along the chain they refer to.

For assay [1], the target named is Cyclin-dependent kinase 18 (Homo sapiens) (UniProt Q07002). Conditions: at 10 µM.
For assay [2], the target named is T1, Mitogen-activated protein kinase kinase kinase kinase 2 (Homo sapiens) (UniProt Q12851).
T1 sequence (whole entry): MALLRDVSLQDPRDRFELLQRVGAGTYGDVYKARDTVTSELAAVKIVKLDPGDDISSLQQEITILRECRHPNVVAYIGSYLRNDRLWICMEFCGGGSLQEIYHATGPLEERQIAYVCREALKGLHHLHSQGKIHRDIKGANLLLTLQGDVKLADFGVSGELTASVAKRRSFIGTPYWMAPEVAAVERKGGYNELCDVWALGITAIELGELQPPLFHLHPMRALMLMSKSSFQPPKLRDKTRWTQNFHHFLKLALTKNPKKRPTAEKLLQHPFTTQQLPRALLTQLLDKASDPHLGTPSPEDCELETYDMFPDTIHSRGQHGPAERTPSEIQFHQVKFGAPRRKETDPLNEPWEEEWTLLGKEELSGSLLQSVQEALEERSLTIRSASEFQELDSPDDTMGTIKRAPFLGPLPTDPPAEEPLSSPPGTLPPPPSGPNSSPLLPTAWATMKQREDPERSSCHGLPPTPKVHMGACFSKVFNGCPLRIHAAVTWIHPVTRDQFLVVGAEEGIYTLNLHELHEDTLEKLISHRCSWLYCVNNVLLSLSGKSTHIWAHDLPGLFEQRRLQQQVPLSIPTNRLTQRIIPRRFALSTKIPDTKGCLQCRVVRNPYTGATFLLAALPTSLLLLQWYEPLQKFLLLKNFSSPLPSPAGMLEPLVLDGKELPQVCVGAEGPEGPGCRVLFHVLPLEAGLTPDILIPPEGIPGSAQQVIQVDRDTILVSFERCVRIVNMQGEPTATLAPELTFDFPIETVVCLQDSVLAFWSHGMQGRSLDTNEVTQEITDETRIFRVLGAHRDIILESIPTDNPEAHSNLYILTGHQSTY
As to the kind of experiment: Selectivity interaction (ActivX KiNativ screen (kinase selectivity in THP-1 cell lysates)) EUB0000639a MAP4K2. The format is subcellular. The note with it: lysate, at 1 µM.

The target in assay [3] is Receptor-type tyrosine-protein kinase FLT3 (Homo sapiens) (UniProt P36888). As to the kind of experiment: (§1) Selectivity interaction (KinomeScan (DiscoverX)) EUB0000618a FLT3. Conditions: at 10 µM.
For assay [4], the system named is T2, Receptor-type tyrosine-protein kinase FLT3 (Homo sapiens), P36888 [D835H].
T2 sequence (whole entry): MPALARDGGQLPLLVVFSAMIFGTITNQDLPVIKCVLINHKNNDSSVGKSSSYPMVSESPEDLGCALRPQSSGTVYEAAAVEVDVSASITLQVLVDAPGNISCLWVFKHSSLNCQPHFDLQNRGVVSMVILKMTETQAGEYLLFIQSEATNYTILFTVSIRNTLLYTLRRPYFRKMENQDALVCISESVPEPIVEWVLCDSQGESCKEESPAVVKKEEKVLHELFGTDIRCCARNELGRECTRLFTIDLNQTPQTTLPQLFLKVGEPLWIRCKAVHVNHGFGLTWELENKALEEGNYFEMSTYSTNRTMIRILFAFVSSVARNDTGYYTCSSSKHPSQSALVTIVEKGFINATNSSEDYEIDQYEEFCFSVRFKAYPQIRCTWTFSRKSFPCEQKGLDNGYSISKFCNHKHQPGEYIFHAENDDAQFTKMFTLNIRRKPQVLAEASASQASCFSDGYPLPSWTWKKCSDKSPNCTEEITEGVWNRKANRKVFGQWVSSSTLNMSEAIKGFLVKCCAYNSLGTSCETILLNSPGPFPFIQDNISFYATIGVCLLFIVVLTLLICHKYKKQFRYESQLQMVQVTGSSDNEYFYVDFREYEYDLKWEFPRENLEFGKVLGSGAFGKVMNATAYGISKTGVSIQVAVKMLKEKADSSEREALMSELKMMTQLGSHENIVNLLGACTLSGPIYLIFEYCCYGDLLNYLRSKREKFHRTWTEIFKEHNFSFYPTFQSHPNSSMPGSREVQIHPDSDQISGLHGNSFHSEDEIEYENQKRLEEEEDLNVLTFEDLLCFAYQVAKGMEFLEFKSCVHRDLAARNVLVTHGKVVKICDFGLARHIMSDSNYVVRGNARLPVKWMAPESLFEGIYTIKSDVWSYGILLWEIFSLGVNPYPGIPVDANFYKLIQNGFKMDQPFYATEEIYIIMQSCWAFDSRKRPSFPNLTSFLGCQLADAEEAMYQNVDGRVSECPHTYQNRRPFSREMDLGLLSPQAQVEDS
The assay is described as §1. Conditions: at 10 µM.

Assay [5] has as its system T3, Receptor-type tyrosine-protein kinase FLT3 (Homo sapiens), P36888 [K663Q].
T3 sequence (whole entry): T2 sequence (whole entry) with K663Q, H835D
Described as §1. Conditions: at 10 µM.

The test system of assay [6] is Receptor-type tyrosine-protein kinase FLT3 (Homo sapiens), P36888 [UNDEFINED MUTATION]. The assay is described as §1. The note with it: at 10 µM.

Sequence of Cyclin-dependent kinase 18 (Homo sapiens) (Q07002 whole entry): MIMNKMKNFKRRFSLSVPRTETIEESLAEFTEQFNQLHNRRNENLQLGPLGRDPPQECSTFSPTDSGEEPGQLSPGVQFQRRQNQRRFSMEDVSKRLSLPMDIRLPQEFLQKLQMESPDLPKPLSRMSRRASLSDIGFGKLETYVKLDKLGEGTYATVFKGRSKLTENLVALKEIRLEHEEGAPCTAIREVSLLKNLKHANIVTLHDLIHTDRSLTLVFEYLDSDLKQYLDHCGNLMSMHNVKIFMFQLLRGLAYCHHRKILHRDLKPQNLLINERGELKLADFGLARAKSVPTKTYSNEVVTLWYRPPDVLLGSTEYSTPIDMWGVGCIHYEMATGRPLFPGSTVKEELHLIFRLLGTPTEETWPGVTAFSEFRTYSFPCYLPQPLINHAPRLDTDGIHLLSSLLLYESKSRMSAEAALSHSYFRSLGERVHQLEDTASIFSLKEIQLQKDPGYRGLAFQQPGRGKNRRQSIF

As for `Cc1cc([C@@H](C)Nc2ccccc2C(=O)O)c2nc(N3CCOCC3)cc(=O)n2c1` [AZD-6482], in assay [1], the % of control came out at 100%.
Turning to `CC[C@@H]1[C@H](F)C(=O)N[C@@H]1COc1nccc2cc(C(N)=O)c(OC)cc12` [ZIMLOVISERTIB], the % of inhibition in assay [2] was -10.5%.
For the compound `O[C@H]1CC[C@H](Nc2ncc3nc(Nc4c(F)cc(F)cc4F)n([C@H]4CCOC4)c3n2)CC1`, the % of control in assay [3] came to 97%; in assay [4], 67%; in assay [5], 100%; in assay [6] it was 90%.
